Experimental data as given in PubChem BioAssay (NCI).
“And” between values parts separate entries of the source, which are not always exact repeats. Identical values can stand only once.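 These data come from cells grown in 96-well plates and exposed to compound for 48 hours at five concentrations. Here, GI50 denotes the concentration required for 50% inhibition of growth. TGI marks complete inhibition of growth.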

Legend:
Test in all cases: NCI-60 cell line screen, 48 h
BT-549 breast = tested on: BT-549 breast
IGROV1 ovarian = tested on: IGROV1 ovarian
M14 melanoma = tested on: M14 melanoma
MDA-MB-435 = tested on: MDA-MB-435
OVCAR-5 ovarian = tested on: OVCAR-5 ovarian
SF-268 CNS = tested on: SF-268 CNS
SNB-75 CNS = tested on: SNB-75 CNS
U251 CNS = tested on: U251 CNS
UO-31 renal = tested on: UO-31 renal
CCRF-CEM leukemia = tested on: CCRF-CEM leukemia
NCI-H522 lung = tested on: NCI-H522 lung
SR leukemia = tested on: SR leukemia
RPMI-8226 leukemia = tested on: RPMI-8226 leukemia

Compound | TGI (BT-549 breast) | TGI (IGROV1 ovarian) | TGI (M14 melanoma) | TGI (MDA-MB-435) | TGI (OVCAR-5 ovarian) | TGI (SF-268 CNS) | TGI (SNB-75 CNS) | TGI (U251 CNS) | TGI (UO-31 renal) | TGI (CCRF-CEM leukemia) | TGI (NCI-H522 lung) | TGI (SR leukemia) | TGI (RPMI-8226 leukemia) | GI50 (RPMI-8226 leukemia) | GI50 (IGROV1 ovarian) | GI50 (M14 melanoma) | GI50 (SNB-75 CNS) | GI50 (SR leukemia) | GI50 (U251 CNS) | GI50 (UO-31 renal)
CC(=O)NC1=NC(=O)/C(=C/c2ccc(/C=C3/C(=O)N=C(NC(C)=O)N3C)cc2)N1C | > 100 µM | > 100 µM | > 100 µM | > 100 µM | > 100 µM | > 100 µM | > 100 µM | > 100 µM | > 100 µM | – | – | – | – | – | – | – | – | – | – | –
CCn1c2ccccc2c2c(-c3ccccc3)cc3c(c21)C(=O)N(c1ccccc1)C3=O | – | > 100 µM | > 100 µM | – | > 100 µM | > 100 µM | > 100 µM | > 100 µM | > 100 µM | > 100 µM | > 100 µM | > 100 µM | – | – | – | – | – | – | – | –
CN(CCc1ccccn1)C(=S)N/N=C(\c1ccccc1)c1ccccn1 | – | 1.57 µM | 8.43 µM | 8.09 µM | 7.88 µM | – | 4.25 µM | > 36.6 µM | 1.83 µM | > 100 µM | 5.22 µM | 15.9 µM | 2.14 µM | – | – | – | – | – | – | –
Cn1cc(S(=O)(=O)NC(=O)Nc2ccc(Cl)cc2)c(=O)c2ccc(F)cc21 | – | > 100 µM | – | > 100 µM | > 100 µM | > 100 µM | > 100 µM | > 100 µM | > 100 µM | > 100 µM | > 100 µM | > 100 µM | > 100 µM | – | – | – | – | – | – | –
COc1cc(-c2c3c(cc4c2OCO4)[C@@H](Nc2ccc(-c4ccc(-c5ccc(N[C@@H]6c7cc8c(cc7C(c7cc(OC)c(O)c(OC)c7)[C@H]7C(=O)OC[C@H]67)OCO8)cc5)cc4)cc2)[C@H]2COC(=O)[C@@H]2C3)cc(OC)c1O (stereo partly specified) | 6.76 µM | 2.68 µM | 4.11 µM | 3.86 µM | 17 µM | 10.9 µM | – | 10.1 µM | 13.1 µM | > 100 µM | – | – | – | – | – | – | – | – | – | –
CC(C)(NC(=O)OCc1ccccc1)C(=O)OC(=O)C(C)(C)NC(=O)OCc1ccccc1 | > 100 µM | > 100 µM | > 100 µM | > 100 µM | > 100 µM | – | > 100 µM | > 100 µM | > 100 µM | > 100 µM | > 100 µM | – | > 100 µM | – | – | – | – | – | – | –
NC(=O)CC(N=Cc1nc(-c2ccccc2)oc1O)C(=O)O (stereo unspecified) | – | > 100 µM | > 100 µM | – | > 100 µM | > 100 µM | > 100 µM | > 100 µM | > 100 µM | > 100 µM | > 100 µM | – | > 100 µM | – | – | – | – | – | – | –
CCc1c(-c2ccc(OC)cc2)oc(OC)c(C)c1=O | > 100 µM | > 100 µM | > 100 µM | > 100 µM | > 100 µM | > 100 µM | > 100 µM | > 100 µM | > 100 µM | > 100 µM | > 100 µM | – | – | – | – | – | – | – | – | –
CC1=C(C)CC2(C=C(C(C)(C)C)C(=O)C(C(C)(C)C)=C2)SC1 | – | 29.4 µM | 99.4 µM | 43.6 µM | 35.7 µM | 46.6 µM | 34.2 µM | 29.9 µM | 29.7 µM | 51 µM | 16.5 µM | > 100 µM | 33.8 µM | – | – | – | – | – | – | –
CCCCOC(=O)C1CC[C@H]2[C@@H]3CCc4cc(OC(=O)c5cccc6c(=O)c7ccccc7[nH]c56)ccc4[C@H]3CC[C@]12C (stereo partly specified) | 15 µM | 14.9 µM | 20.5 µM | 18 µM | 19.8 µM | 19.6 µM | 18.3 µM | 18.7 µM | 14.9 µM | – | 16.9 µM | – | 20.6 µM | – | – | – | – | – | – | –
COc1cc(C(C)O)c[n+](CCC2CNc3ccccc32)c1 (stereo unspecified) | – | > 100 µM | > 100 µM | – | – | 93 µM | > 100 µM | > 100 µM | > 100 µM | > 100 µM | > 100 µM | > 100 µM | > 100 µM | – | – | – | – | – | – | –
Cc1nc2cc(Nc3ccccc3C(=O)O)ccc2s1 | – | > 100 µM | > 100 µM | – | > 100 µM | > 100 µM | > 100 µM | > 100 µM | > 100 µM | > 100 µM | > 100 µM | > 100 µM | > 100 µM | – | – | – | – | – | – | –
COc1nc2ccc(COc3ccc(C(=O)O)cc3)cc2nc1OC | – | > 100 µM | > 100 µM | > 100 µM | > 100 µM | > 100 µM | 53.4 µM | > 100 µM | > 100 µM | 97.4 µM | > 100 µM | > 100 µM | – | – | – | – | – | – | – | –
Clc1ccc(C[P+](c2ccccc2)(c2ccccc2)c2ccccc2)cc1Cl | – | 14.6 µM | 12.5 µM | – | 19.2 µM | 11.3 µM | 5.1 µM | 10.6 µM | – | 28.3 µM | 10.3 µM | > 100 µM | – | – | – | – | – | – | – | –
O=C(O)/C=C/c1ccc2c(c1)CC1(Cc3ccccc3C1)C2 | – | > 100 µM | > 100 µM | > 100 µM | > 100 µM | – | – | > 100 µM | > 100 µM | > 100 µM | > 100 µM | 62.3 µM | > 100 µM | – | – | – | – | – | – | –
CC(C)(C)N/N=C(\C(=O)NC1=C(Cl)C(=O)c2ccccc2C1=O)C1C=CCS1(=O)=O (stereo unspecified) | 25.1 µM | 24.5 µM | 23.7 µM | – | 35.5 µM | > 100 µM | 24 µM | > 100 µM | 37.7 µM | > 100 µM | 25.5 µM | – | > 100 µM | – | – | – | – | – | – | –
Cn1c(=O)c2c(nc3sc4ccccc4c(=O)n32)n(C)c1=O | > 100 µM | > 100 µM | > 100 µM | > 100 µM | > 100 µM | > 100 µM | > 100 µM | > 100 µM | > 100 µM | – | – | – | > 100 µM | – | – | – | – | – | – | –
CCn1c(CCl)nc2c1C(=O)c1ccccc1C2=O | 4.09 µM | 3.86 µM | 3.22 µM | 3.12 µM | 3.25 µM | 6.65 µM | 3.62 µM | 3.12 µM | – | – | – | – | > 100 µM | – | – | – | – | – | – | –
CC1(C)OC2OC(C(COS(=O)(=O)C(F)(F)F)N=[N+]=[N-])C(OC(=O)c3ccccc3)C2O1 (stereo unspecified) | > 100 µM | – | > 100 µM | > 100 µM | > 100 µM | > 100 µM | > 100 µM | > 100 µM | > 100 µM | > 100 µM | – | – | > 100 µM | > 100 µM and 26.7 µM | – | – | – | – | – | –
NC(=S)N1N=C2c3ccccc3CC[C@H]2[C@@H]1c1ccc(Cl)cc1 | – | > 100 µM | > 100 µM | – | > 100 µM | > 100 µM | – | > 100 µM | 66.8 µM | > 100 µM | 35.4 µM | > 100 µM | > 100 µM | – | – | – | – | – | – | –
COc1ccc(C2C(=O)c3c(OC)cc(OC)cc3OC2c2cccnc2)cc1 (stereo unspecified) | – | > 100 µM | > 100 µM | > 100 µM | > 100 µM | > 100 µM | 84.1 µM | – | > 100 µM | > 100 µM | > 100 µM | > 100 µM | – | – | – | – | – | – | – | –
COc1cc2c(cc1OC)C(=O)/C(=C/c1cc(C)cc(C)c1)C2 | 60.4 µM | > 42.4 µM | > 100 µM | – | > 86.4 µM | > 100 µM | > 100 µM | > 81.8 µM | > 100 µM | – | > 46.8 µM | – | > 42.6 µM | – | – | – | – | – | – | –
CCOC(=O)c1c(SC(=O)c2ccc(OC)cc2)n(-c2ccccc2)c(=S)n(-c2ccccc2)c1=O | – | 38 µM | 83.2 µM | > 100 µM | > 100 µM | 43.4 µM | > 100 µM | > 100 µM | – | > 100 µM | > 100 µM | > 100 µM | – | – | – | – | – | – | – | –
C[C@@H]1CC(=O)C[C@@H]2CC[C@H]3[C@@H]4CC[C@H](OC(=O)c5cccc6cc7ccccc7nc56)[C@H]4CC[C@@H]3[C@H]21 | 59.1 µM | 19.2 µM | 31.6 µM | 35.1 µM | 34.9 µM | 20.9 µM | 36.5 µM | 19.8 µM | 31 µM | – | 20.1 µM | – | – | – | – | – | – | – | – | –
CNc1ncnc2c1nc(NC1CCCC1)n2C1OC(CO)C(O)C1O (stereo unspecified) | – | – | > 100 µM | > 100 µM | > 100 µM | > 100 µM | – | > 100 µM | > 100 µM | – | > 100 µM | – | – | – | – | – | – | – | – | –
Cc1cc(S(=O)(=O)Nc2n[nH]c(N)n2)c(Cl)cc1Cl | > 10 µM | > 10 µM | > 10 µM | > 10 µM | > 10 µM | > 10 µM | > 10 µM | > 10 µM | – | > 10 µM | > 10 µM | – | > 10 µM | – | – | – | – | – | – | –
CN(C)c1ccc(/C=C/c2sc3ccccc3[n+]2C)cc1 | – | 19.7 µM and 15.3 µM | 16.2 µM and 3.29 µM | 5.64 µM and 3.94 µM | 26.6 µM and 61.5 µM | 17.5 µM and 23 µM | – | 13.8 µM and > 100 µM | – | – | 11.1 µM and 7.29 µM | 8.87 µM and 2.6 µM | 0.719 µM and 4.19 µM | 0.355 µM | 4.29 µM and 1.21 µM | 3.66 µM and 0.427 µM | 0.35 µM and 2.3 µM | 2.07 µM and 0.268 µM | 0.479 µM and 0.121 µM | 2.91 µM
COC1C(N(C)C)=C(c2ccccc2)C(=O)N2CCc3ccccc3C12 (stereo unspecified) | – | > 100 µM | > 100 µM | > 100 µM | > 100 µM | > 100 µM | > 100 µM | > 100 µM | > 100 µM | > 100 µM | > 100 µM | – | – | – | – | – | – | – | – | –
O=C(/C=C(\C(=O)c1cccs1)c1cccs1)c1ccc(C(=O)/C=C(\C(=O)c2cccs2)c2cccs2)cc1 | – | > 100 µM | > 100 µM | > 100 µM | – | > 100 µM | > 100 µM | > 100 µM | > 100 µM | > 100 µM | – | > 100 µM | > 100 µM | – | – | – | – | – | – | –
